For 13 molecules, T/C results are on record in PubChem BioAssay AID330 (DTP/NCI, 2004).

The structures appear in SMILES notation. “And” between values parts separate entries of the source, which are not always exact repeats. Equal entries are not always repeated. Inconclusive results and toxic doses are left out. Numbered stars: 1 amine (or outer) side, 2 acyl side, 3 side chain; on linkers, the order of the positions; unused ones are H or OH. Bridge positions count the residues as written; N and C are the ends. Square brackets hold non-standard residues; d marks the D form. Peptide text beside a SMILES is read from it. I, II: the chains in the order shown. Actinocin(1to9) = Cc1c2oc3c(C)ccc(C(=O)[*:2])c3nc-2c(C(=O)[*:1])c(N)c1=O; NMeV = CN[CH](C(=O)O)C(C)C; Aze = O=C(O)[CH]1CCN1; Sar = CNCC(=O)O

The subject of the test is P388 leukemia ip, CD2F1 mice, survival T/C. Kind of test: NCI In Vivo Anticancer Drug Screen. Data for tumor model P388 Leukemia (intraperitoneal) in CD2F1 (CDF1) mice. The settings on record: endpoint: median survival time, higher = longer survival. The method in brief:
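Mice carrying the transplanted tumor received test compound or vehicle. Survival was recorded in each group, and the value is the treated-group measurement divided by that of the vehicle-treated control group.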

The mark [1] stands for this setting: dose: 100.0 mg/kg/injection, schedule: Q01DX001 (ip), vehicle: Klucel (hydroxypropylcellulose) (HPC).
The mark [2] stands for this setting: dose: 200.0 mg/kg/injection, schedule: Q01DX001 (ip), vehicle: Klucel (hydroxypropylcellulose) (HPC).
[3] abbreviates: dose: 400.0 mg/kg/injection, schedule: Q01DX001 (ip), vehicle: Klucel (hydroxypropylcellulose) (HPC).
The mark [4] stands for this setting: dose: 50.0 mg/kg/injection, schedule: Q01DX005 (ip), vehicle: saline with Tween-80.
Where [5] appears, read: dose: 12.5 mg/kg/injection, schedule: Q01DX009 (ip), vehicle: other.
Where [6] appears, read: dose: 25.0 mg/kg/injection, schedule: Q01DX009 (ip), vehicle: other.
Setting [7] is: dose: 50.0 mg/kg/injection, schedule: Q01DX009 (ip), vehicle: other.
Setting [8] is: dose: 100.0 mg/kg/injection, schedule: Q01DX009 (ip), vehicle: other.
Where [9] appears, read: dose: 200.0 mg/kg/injection, schedule: Q01DX009 (ip), vehicle: other.

On to `Cc1c2oc3c(C)ccc(C(=O)NC4C(=O)NC(C(C)C)C(=O)N5CCCC5C(=O)N(C)CC(=O)N(C)C(C(C)C)C(=O)OC4C)c3nc-2c(C(=O)NC2C(=O)NC(C(C)C)C(=O)N3CCC3C(=O)N(C)CC(=O)N(C)C(C(C)C)C(=O)OC2C)c(N)c1=O` (stereo not drawn) (I: TV[Aze][Sar][NMeV] / II: TVP[Sar][NMeV]; ester I:1-I:C, II:1-II:C; linker I:N-II:N via Actinocin(1to9); configuration not given here), for which the T/C was 214 % of control (dose: 0.05 mg/kg/injection, schedule: Q01DX009 (ip), vehicle: water); 96 % of control (dose: 0.08 mg/kg/injection, schedule: Q04DX003 (ip), vehicle: saline); 102 % of control (dose: 0.15 mg/kg/injection, schedule: Q04DX003 (ip), vehicle: saline); 105 % of control (dose: 0.3 mg/kg/injection, schedule: Q04DX003 (ip), vehicle: saline); 123 % of control (dose: 12.5 micrograms/kg/injection, schedule: Q01DX009 (ip), vehicle: saline); 167 % of control (dose: 12.5 micrograms/kg/injection, schedule: Q01DX009 (ip), vehicle: water). Moreover, the T/C is, setting by setting: (dose: 19.4 micrograms/kg/injection, schedule: Q01DX009 (ip), vehicle: saline + alcohol) 150 % of control; (dose: 25.0 micrograms/kg/injection, schedule: Q01DX009 (ip), vehicle: water) 200 % of control; (dose: 32.4 micrograms/kg/injection, schedule: Q01DX009 (ip), vehicle: saline + alcohol) 165 % of control; (dose: 50.0 micrograms/kg/injection, schedule: Q01DX009 (ip), vehicle: saline) 155 % of control; (dose: 50.0 micrograms/kg/injection, schedule: Q01DX009 (ip), vehicle: water) 266 % of control; (dose: 54.0 micrograms/kg/injection, schedule: Q01DX009 (ip), vehicle: saline + alcohol) 177 % of control. Further, the T/C by setting is: (dose: 90.0 micrograms/kg/injection, schedule: Q01DX009 (ip), vehicle: saline + alcohol) 186 % of control; (dose: 100.0 micrograms/kg/injection, schedule: Q01DX009 (ip), vehicle: saline) 171 % of control; (dose: 100.0 micrograms/kg/injection, schedule: Q01DX009 (ip), vehicle: water) 89 % of control; (dose: 150.0 micrograms/kg/injection, schedule: Q01DX009 (ip), vehicle: saline + alcohol) 238 % of control; (dose: 200.0 micrograms/kg/injection, schedule: Q01DX009 (ip), vehicle: saline) 250 % of control; (dose: 250.0 micrograms/kg/injection, schedule: Q01DX009 (ip), vehicle: saline + alcohol) 100 % of control. The T/C (dose: 400.0 micrograms/kg/injection, schedule: Q01DX009 (ip), vehicle: saline) was 86 % of control.
Regarding `COc1ccc(C2C(C#N)=C(c3ccccc3)OC(OC)(OC)C2(OC)OC)cc1` (stereo not drawn), the T/C runs as follows: (dose: 60.0 mg/kg/injection, schedule: Q01DX005 (ip), vehicle: Klucel (hydroxypropylcellulose) (HPC)) 102 % of control; (dose: 120.0 mg/kg/injection, schedule: Q01DX005 (ip), vehicle: Klucel (hydroxypropylcellulose) (HPC)) 102 % of control; (dose: 240.0 mg/kg/injection, schedule: Q01DX005 (ip), vehicle: Klucel (hydroxypropylcellulose) (HPC)) 99 % of control.
Take `COc1cccc(CN2CC(C)N(N=Cc3c4c(O)c5c(O)c(C)c6c(c5c3O)C(=O)C(C)(O/C=C/C(OC)C(C)C(OC(C)=O)C(C)C(O)C(C)C(O)C(C)/C=C/C=C(\C)C(=O)N4)O6)C(C)C2)c1` (stereo not drawn): the T/C by setting is: (dose: 50.0 mg/kg/injection, schedule: Q01DX009 (ip), vehicle: saline with Tween-80) 96 % of control; (dose: 100.0 mg/kg/injection, schedule: Q01DX009 (ip), vehicle: saline with Tween-80) 95 % of control; (dose: 200.0 mg/kg/injection, schedule: Q01DX009 (ip), vehicle: saline with Tween-80) 99 % of control.
Consider `Cc1ccc(OP(=O)(Oc2ccc(C)cc2)Oc2ccc(C)cc2)cc1.Cc1ccc(OP(=O)(Oc2ccc(C)cc2)Oc2ccc(C)cc2)cc1.[Cl][Co][Cl]`, for which the T/C by setting is: under setting [1], 96 % of control; under setting [2], 100 % of control; under setting [3], 92 % of control.
Turning to `O=S1(=O)CCC2=CC(C(F)(F)F)=CC(C(F)(F)F)=CN21`, the T/C is, setting by setting: (dose: 12.5 mg/kg/injection, schedule: Q01DX005 (ip), vehicle: saline with Tween-80) 109 % of control; (dose: 25.0 mg/kg/injection, schedule: Q01DX005 (ip), vehicle: saline with Tween-80) 122 % of control; under setting [4], 107 % of control.
For the molecule `c1ccc(-n2nc3c(c2-c2ccncc2)CCCc2ccccc2-3)cc1`, the T/C is 96 % of control under setting [5]; 98 % of control under setting [6]; 120 % of control under setting [7]; 110 % of control under setting [8]; 96 % of control under setting [9].
For `O=C1CC2CC(=O)C(S(=O)c3ccccc3)C2C1` (stereo not drawn), the T/C is 96 % of control (dose: 60.0 mg/kg/injection, schedule: Q01DX005 (ip), vehicle: saline with Tween-80) and 99 % of control (dose: 120.0 mg/kg/injection, schedule: Q01DX005 (ip), vehicle: saline with Tween-80).
With `CCCCCCCCC(=O)N1SC(NC(=O)OC)=Nc2ccccc21`, the T/C reads like this: (dose: 50.0 mg/kg/injection, schedule: Q01DX005 (ip), vehicle: acetone) 98 % of control; (dose: 100.0 mg/kg/injection, schedule: Q01DX005 (ip), vehicle: acetone) 93 % of control; (dose: 200.0 mg/kg/injection, schedule: Q01DX005 (ip), vehicle: acetone) 111 % of control.
For `Cc1cc(O)ccc1Nc1ccc(N(CCCl)CCCl)cc1`, the T/C runs as follows: (dose: 200.0 mg/kg/injection, schedule: Q04DX003 (ip), vehicle: Klucel (hydroxypropylcellulose) (HPC)) 166 % of control; (dose: 400.0 mg/kg/injection, schedule: Q04DX003 (ip), vehicle: Klucel (hydroxypropylcellulose) (HPC)) 154 % of control.
Take `Cc1cccc(C)c1NC(=O)C(=O)/C(=C(\N)c1ccccc1)c1ccccc1`: the T/C is, setting by setting: under setting [4], 101 % of control; (dose: 100.0 mg/kg/injection, schedule: Q01DX005 (ip), vehicle: saline with Tween-80) 94 % of control; (dose: 200.0 mg/kg/injection, schedule: Q01DX005 (ip), vehicle: saline with Tween-80) 90 % of control.
As for `CCn1c2nc(=O)n(C)c(=O)c-2[n+]([O-])c2cc(Br)c(C)cc21`, the T/C (dose: 100.0 mg/kg/injection, schedule: Q04DX002 (ip), vehicle: saline with Tween-80) was 96 % of control; the T/C (dose: 200.0 mg/kg/injection, schedule: Q04DX002 (ip), vehicle: saline with Tween-80) was 94 % of control; the T/C (dose: 400.0 mg/kg/injection, schedule: Q04DX002 (ip), vehicle: saline with Tween-80) was 96 % of control.
For the molecule `CN(C)CCn1nc2n(c(=O)c1=O)CC(=O)N(C)c1ccc(Cl)cc1-2`, the T/C by setting is: under setting [1], 100 % of control; under setting [2], 101 % of control; under setting [3], 96 % of control.
Take `CNC(=S)NNc1cccc2ccccc12`: the T/C by setting is: under setting [5], 97 % of control; under setting [6], 101 % of control; under setting [7], 100 % of control; under setting [8], 103 % of control and 96 % of control; under setting [9], 103 % of control and 96 % of control; (dose: 400.0 mg/kg/injection, schedule: Q01DX009 (ip), vehicle: other) 94 % of control.
